Experimental data: patent US4990521A, “4-(aroylamino)piperidine-butanimide derivatives” (Janssen Pharmaceutica, priority 1989, dated 1991)

Legend:
[1] = Ricinus Oil Test in Rats (antidiarrheal activity); format: in vivo; settings: compound 1 hour before 1 ml ricinus oil orally, no diarrhea in 50% of animals 1 hour after ricinus oil, fasted female Wistar rats; for ED50: Rattus norvegicus, po, 1 h; for Ricinus Oil Test ED50: oral, 60 min
Excerpt: The use of the compounds of formula (I), their N-oxide forms, pharmaceutically acceptable acid-addition salts and stereoisomeric forms thereof in the method of the present invention is based on their useful antidiarrheal activity. This property is clearly evidenced by the experimental data obtained in, for example, the "Ricinus oil Test in Rats". […] By virtue of their useful antidiarrheal activity, it is evident that the compounds of formula (I), their N-oxide forms, pharmaceutically acceptable acid addition salts and stereoisomeric forms can be used in the treatment of diarrhea.
Female Wistar rats were fasted overnight. Each animal was treated orally with a dose level of the compound to be tested. One hour thereafter, the animal received 1 ml of ricinus oil orally. Each animal was kept in an individual cage and 1 hour after the ricinus oil treatment, the presence or absence of diarrhea was noted. The ED50 value was determined as that dose in mg/kg body weight, at which no diarrhea was present in 50% of the tested animals. Said ED50 -values for the compounds of the present invention can be found in the first column of Table 1.

[2] = Tail Withdrawal Test in Rats (undesired central effects); format: in vivo; settings: oral, tail in 55° C. water, suppression of withdrawal response exceeding 10 seconds in 50% of animals, fasted male Wistar rats; for ED50: Rattus norvegicus
Procedure: Male Wistar rats were fasted overnight. Each animal was treated orally with a dose level of the compound to be tested. The thus treated rats Were put into individual restraining cages. At various time periods after administration, the lower 5 cm portion of the tail was immersed into a cup filled with water at a constant temperature of 55° C. The typical tail withdrawal response was evaluated during a 10 seconds period after the immersion. ED50 values in mg/kg body weight were determined as that dose of the test compound capable of suppressing in 50% of the tested animals the typical tail withdrawal response during a time period exceeding 10 seconds. Said ED50 values obtained for the compounds of the present invention are gathered in Table 1 column two.

Compound | ED50 [1] [mg/kg] | ED50 [2] [mg/kg] | Ricinus Oil Test ED50 [1] [mg/kg body weight] | Tail Withdrawal Test ED50 [2] [mg/kg body weight]
CC(CC(C(=O)N(C)C)(c1ccccc1)c1ccccc1)N1CC[C@@H](NC(=O)c2cccc(C(F)(F)F)c2)[C@H](O)C1 (relative stereo) [Compound 1, trans-3-hydroxy-N,N,γ-trimethyl-α,α-diphenyl-4-[[3-(trifluoromethyl)benzoyl]amino]-1-piperidinebutanamide] | 0.15 | > 160 | – | –
CC(CC(C(=O)N(C)C)(c1ccccc1)c1ccccc1)N1CC[C@@H](NC(=O)c2ccc(Cl)c(Cl)c2)[C@H](O)C1 (relative stereo) [Compound 2] | 0.63 | > 160 | – | –
CC(CC(C(=O)N(C)C)(c1ccccc1)c1ccccc1)N1CC[C@@H](NC(=O)c2c(Cl)cccc2Cl)[C@H](O)C1 (relative stereo) [Compound 5] | 0.31 | ≥ 40 | – | –
CC(CC(C(=O)N(C)C)(c1ccccc1)c1ccccc1)N1CC[C@@H](NC(=O)c2cc(Cl)cc(Cl)c2)[C@H](O)C1 (relative stereo) [Compound 7] | 0.31 | > 40 | – | –
CC(CC(C(=O)N(C)C)(c1ccccc1)c1ccccc1)N1CC[C@@H](NC(=O)c2cccc(Cl)c2)[C@H](O)C1 (relative stereo) [Compound 10] | 0.04 | > 40 | – | –
CC(CC(C(=O)N(C)C)(c1ccccc1)c1ccccc1)N1CC[C@@H](NC(=O)c2cccc(Cl)c2[N+](=O)[O-])[C@H](O)C1 (relative stereo) [Compound 17] | 0.63 | > 40 | – | –
CC(CC(C(=O)N(C)C)(c1ccccc1)c1ccccc1)N1CC[C@@H](NC(=O)c2ccc(F)cc2[N+](=O)[O-])[C@H](O)C1 (relative stereo) [Compound 19] | 1.25 | > 40 | – | –
Cc1ccc([N+](=O)[O-])c(C(=O)N[C@@H]2CCN(C(C)CC(C(=O)N(C)C)(c3ccccc3)c3ccccc3)C[C@H]2O)c1 (relative stereo) [Compound 21] | ≤ 0.63 | > 40 | – | –
CC(CC(C(=O)N(C)C)(c1ccccc1)c1ccccc1)N1CC[C@@H](NC(=O)c2ccccc2OCc2ccccc2)[C@H](O)C1 (relative stereo) [Compound 29, trans-3-hydroxy-N,N,γ-trimethyl-α,α-diphenyl-4-[[2-(phenylmethoxy)benzoyl]amino]-1-piperidinebutanamide] | ≤ 0.63 | ~40 | – | –
COc1cc(Cl)ccc1C(=O)N[C@@H]1CCN(C(C)CC(C(=O)N(C)C)(c2ccccc2)c2ccccc2)C[C@H]1O (relative stereo) [Compound 30] | 0.63 | ≥ 40 | – | –
COc1c(Cl)cc(Cl)cc1C(=O)N[C@@H]1CCN(C(C)CC(C(=O)N(C)C)(c2ccccc2)c2ccccc2)C[C@H]1O (relative stereo) [Compound 31] | 0.63 | ~40 | – | –
CCCC(=O)c1ccc(OC)c(C(=O)N[C@@H]2CCN(C(C)CC(C(=O)N(C)C)(c3ccccc3)c3ccccc3)C[C@H]2O)c1 (relative stereo) [Compound 34] | < 2.5 | > 40 | – | –
CC(CC(C(=O)N(C)C)(c1ccccc1)c1ccccc1)N1CC[C@@H](NC(=O)c2cccc([N+](=O)[O-])c2Br)[C@H](O)C1 (relative stereo) [Compound 38] | 2.5 | > 40 | – | –
CC(CC(C(=O)N(C)C)(c1ccccc1)c1ccccc1)N1CC[C@@H](NC(=O)c2cc(Cl)ccc2N)[C@H](O)C1 (relative stereo) [Compound 47, trans-4-[(2-amino-5-chlorobenzoyl)amino]-3-hydroxy-N,N,γ-trimethyl-α,α-diphenyl-1-piperidinebutanamide] | 0.08 | ~40 | – | –
COc1cc(N)c(Cl)cc1C(=O)N[C@@H]1CCN(C(C)CC(C(=O)N(C)C)(c2ccccc2)c2ccccc2)C[C@H]1O (relative stereo) [Compound 50, trans-4-[(4-amino-5-chloro-2-methoxybenzoyl)amino]-3-hydroxy-N,N,γ-trimethyl-α,α-diphenyl-1-piperidinebutanamide] | 2.5 | > 40 | – | –
CO[C@@H]1CN(C(C)CC(C(=O)N(C)C)(c2ccccc2)c2ccccc2)CC[C@H]1NC(=O)c1cccc(C(F)(F)F)c1 (relative stereo) [Compound 52, trans-3-methoxy-N,N,γ-trimethyl-α,α-diphenyl-4-[[3-(trifluoromethyl)benzoyl]amino]-1-piperidinebutanamide] | 2.5 | 40 | – | –
COc1cc(N)c(Cl)cc1C(=O)N[C@@H]1CCN(C(C)CC(C(=O)N(C)C)(c2ccccc2)c2ccccc2)C[C@H]1OC (relative stereo) [Compound 53, trans-4-[(4-amino-5-chloro-2-methoxybenzoyl)amino]-3-methoxy-N,N,γ-trimethyl-α,α-diphenyl-1-piperidinebutanamide] | 2.5 | ~40 | – | –
COc1cc(NC(C)=O)c(Cl)cc1C(=O)N[C@@H]1CCN(C(C)CC(C(=O)N(C)C)(c2ccccc2)c2ccccc2)C[C@H]1O (relative stereo) [Compound 64, trans-4-[[4-(acetylamino)-5-chloro-2-methoxybenzoyl]amino]-3-hydroxy-N,N,γ-trimethyl-α,α-diphenyl-1-piperidinebutanamide] | 2.5 | > 40 | – | –
CC(CC(C(=O)N(C)C)(c1ccccc1)c1ccccc1)N1CC[C@@H](NC(=O)c2ccc(F)cc2N)[C@H](O)C1.O (relative stereo) [Compound 67, trans-4-[(2-amino-4-fluorobenzoyl)amino]-3-hydroxy-N,N,γ-trimethyl-α,α-diphenyl-1piperidinebutanamide monohydrate] | < 0.04 | > 40 | – | –
CC(CC(C(=O)N(C)C)(c1ccccc1)c1ccccc1)N1CC[C@@H](NC(=O)c2cccc(N)c2O)[C@H](O)C1 (relative stereo) [Compound 68, trans-4-[(3-amino-2-hydroxybenzoyl)amino]-3-hydroxy-N,N,γ-trimethyI-α,α-diphenyl-1-piperidinebutanamide] | 0.63 | > 40 | – | –
CC(CC(C(=O)N(C)C)(c1ccccc1)c1ccccc1)N1CC[C@@H](NC(=O)c2cccc(Cl)c2N)[C@H](O)C1 (relative stereo) [Compound 69, trans-4-[(2-amino-3-chlorobenzoyl)amino]-3-hydroxy-N,N,γ-trimethyl-α,α-diphenyl-1-piperidinebutanamide] | < 0.63 | > 40 | – | –
CC(CC(C(=O)N(C)C)(c1ccccc1)c1ccccc1)N1CC[C@@H](NC(=O)c2ccc(Cl)cc2N)[C@H](O)C1 (relative stereo) [Compound 70, trans-4-[(2-amino-4-chlorobenzoyl)amino]-3-hydroxy-N,N,γ-trimethyl-α,α-diphenyl 1-piperidinebutanamide monohydrate] | < 0.63 | > 40 | – | –
COc1cc(N)ccc1C(=O)N[C@@H]1CCN(C(C)CC(C(=O)N(C)C)(c2ccccc2)c2ccccc2)C[C@H]1O (relative stereo) [Compound 75, trans-4[(4-amino-2-methoxybenzoyl)amino]-3-hydroxy-N,N,γ-trimethyl-α,α-diphenyl-1-piperidinebutanamide] | 2.5 | > 40 | – | –
CC(CC(C(=O)N(C)C)(c1ccccc1)c1ccccc1)N1CC[C@@H](NC(=O)c2ccccc2O)[C@H](O)C1 (relative stereo) [Compound 77, trans-3-hydroxy-4-[(2-hydroxybenzoyl)-amino]-N,N,γ-trimethyl-α,α-diphenyl-1-piperidinebutanamide] | 0.16 | ≥ 40 | – | –
CC(CC(C(=O)N(C)C)(c1ccccc1)c1ccccc1)N1CCC(NC(=O)c2cccc(C(F)(F)F)c2)C(O)C1 (single isomer, unassigned; (+)) [Compound 57, (+)-(3B,trans)-3-hydroxy-N,N,γ-trimethyl-α,α-diphenyl-4-[[3-(trifluoromethyl)benzoyl]amino]-1-piperidinebutanamide] | – | > 160 | 0.31 | –
CC(CC(C(=O)N(C)C)(c1ccccc1)c1ccccc1)N1CCC(NC(=O)c2cccc(C(F)(F)F)c2)C(O)C1 (single isomer, unassigned; (-)) [Compound 55, (-)-(3A,trans)-3-hydroxy-N,N,γ-trimethyl-α,α-diphenyl-4-[[3-(trifluoromethyl)benzoyl]amino]-1-piperidinebutanamide] | – | – | 1.0 | > 160
